Experimental data taken from PubChem BioAssay (NCI).
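Briefly, cells in 96-well plates were exposed to five compound concentrations for 48 h, and endpoints were estimated by linear interpolation. TGI: concentration producing complete growth inhibition.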

Legend:
Test in all cases: DTP human tumour cell line panel, 48 h
786-0 renal = system: 786-0 renal
A498 renal = system: A498 renal
A549 NSCLC = system: A549 NSCLC
ACHN renal = system: ACHN renal
CAKI-1 renal = system: CAKI-1 renal
CCRF-CEM leukemia = system: CCRF-CEM leukemia
COLO 205 colon = system: COLO 205 colon
DLD-1 colon = system: DLD-1 colon
DMS 114 small cell lung = system: DMS 114 small cell lung
DMS 273 small cell lung = system: DMS 273 small cell lung
EKVX NSCLC = system: EKVX NSCLC
HCC-2998 colon = system: HCC-2998 colon
HCT-116 colon = system: HCT-116 colon
HCT-15 colon = system: HCT-15 colon
HL-60(TB) leukemia = system: HL-60(TB) leukemia
HOP-62 NSCLC = system: HOP-62 NSCLC
HOP-92 NSCLC = system: HOP-92 NSCLC
HT29 colon = system: HT29 colon
IGROV1 ovarian = system: IGROV1 ovarian
K-562 leukemia = system: K-562 leukemia
KM12 colon = system: KM12 colon
KM20L2 colon = system: KM20L2 colon
LXFL 529 NSCLC = system: LXFL 529 NSCLC
M14 melanoma = system: M14 melanoma
M19-MEL melanoma = system: M19-MEL melanoma
MALME-3M melanoma = system: MALME-3M melanoma
MOLT-4 leukemia = system: MOLT-4 leukemia
NCI-H226 lung = system: NCI-H226 lung
NCI-H23 lung = system: NCI-H23 lung
NCI-H460 lung = system: NCI-H460 lung
NCI-H522 lung = system: NCI-H522 lung
OVCAR-3 ovarian = system: OVCAR-3 ovarian
OVCAR-4 ovarian = system: OVCAR-4 ovarian
OVCAR-5 ovarian = system: OVCAR-5 ovarian
OVCAR-8 ovarian = system: OVCAR-8 ovarian
RPMI-8226 leukemia = system: RPMI-8226 leukemia
RXF-631 renal = system: RXF-631 renal
SF-268 CNS = system: SF-268 CNS
SF-295 CNS = system: SF-295 CNS
SF-539 CNS = system: SF-539 CNS
SK-MEL-2 melanoma = system: SK-MEL-2 melanoma
SK-MEL-28 melanoma = system: SK-MEL-28 melanoma
SK-MEL-5 melanoma = system: SK-MEL-5 melanoma
SK-OV-3 ovarian = system: SK-OV-3 ovarian
SN12C renal = system: SN12C renal
SNB-19 CNS = system: SNB-19 CNS
SNB-75 CNS = system: SNB-75 CNS
SW-620 colon = system: SW-620 colon
TK-10 renal = system: TK-10 renal
U251 CNS = system: U251 CNS
UACC-257 melanoma = system: UACC-257 melanoma
UACC-62 melanoma = system: UACC-62 melanoma
UO-31 renal = system: UO-31 renal
XF 498 CNS = system: XF 498 CNS
LOX IMVI melanoma = system: LOX IMVI melanoma
SNB-78 CNS = system: SNB-78 CNS
SR leukemia = system: SR leukemia
HOP-18 NSCLC = system: HOP-18 NSCLC
RXF 393 renal = system: RXF 393 renal

Measured: TGI

CC(C)c1ccc(C2C3=C(N=C4SCC(=O)N42)C(=O)c2ccccc23)cc1 (centres undefined)
98.7 µM: NCI-H522 lung
> 100 µM: 786-0 renal | A498 renal | A549 NSCLC | ACHN renal | CAKI-1 renal | CCRF-CEM leukemia | COLO 205 colon | DLD-1 colon | DMS 114 small cell lung | DMS 273 small cell lung | EKVX NSCLC | HCC-2998 colon | HCT-116 colon | HCT-15 colon | HL-60(TB) leukemia | HOP-62 NSCLC | HOP-92 NSCLC | HT29 colon | IGROV1 ovarian | K-562 leukemia | KM12 colon | KM20L2 colon | LXFL 529 NSCLC | M14 melanoma | M19-MEL melanoma | MALME-3M melanoma | MOLT-4 leukemia | NCI-H226 lung | NCI-H23 lung | NCI-H460 lung | OVCAR-3 ovarian | OVCAR-4 ovarian | OVCAR-5 ovarian | OVCAR-8 ovarian | RPMI-8226 leukemia | RXF-631 renal | SF-268 CNS | SF-295 CNS | SF-539 CNS | SK-MEL-2 melanoma | SK-MEL-28 melanoma | SK-MEL-5 melanoma | SK-OV-3 ovarian | SN12C renal | SNB-19 CNS | SNB-75 CNS | SW-620 colon | TK-10 renal | U251 CNS | UACC-257 melanoma | UACC-62 melanoma | UO-31 renal | XF 498 CNS

CCN=C(NNc1ccc([N+](=O)[O-])cc1)P(=O)(OC(C)C)OC(C)C
> 100 µM: 786-0 renal | A498 renal | A549 NSCLC | ACHN renal | CAKI-1 renal | CCRF-CEM leukemia | COLO 205 colon | DLD-1 colon | DMS 114 small cell lung | DMS 273 small cell lung | EKVX NSCLC | HCC-2998 colon | HCT-116 colon | HCT-15 colon | HL-60(TB) leukemia | HOP-62 NSCLC | HOP-92 NSCLC | K-562 leukemia | KM12 colon | KM20L2 colon | LOX IMVI melanoma | LXFL 529 NSCLC | M14 melanoma | M19-MEL melanoma | MALME-3M melanoma | MOLT-4 leukemia | NCI-H226 lung | NCI-H23 lung | NCI-H460 lung | NCI-H522 lung | OVCAR-3 ovarian | OVCAR-4 ovarian | OVCAR-5 ovarian | OVCAR-8 ovarian | RPMI-8226 leukemia | SF-268 CNS | SF-539 CNS | SK-MEL-2 melanoma | SK-MEL-28 melanoma | SK-MEL-5 melanoma | SN12C renal | SNB-19 CNS | SNB-75 CNS | SNB-78 CNS | SR leukemia | SW-620 colon | TK-10 renal | U251 CNS | UACC-257 melanoma | UACC-62 melanoma | UO-31 renal | XF 498 CNS

COc1ccc(C(=O)Cc2c(C(=O)c3ccccc3)c3ccccc3n2C(=O)c2ccccc2)cc1
64.3 µM: SK-MEL-5 melanoma
70.9 µM: RPMI-8226 leukemia
> 100 µM: 786-0 renal | A549 NSCLC | ACHN renal | CAKI-1 renal | CCRF-CEM leukemia | COLO 205 colon | DLD-1 colon | DMS 114 small cell lung | DMS 273 small cell lung | HCC-2998 colon | HCT-116 colon | HCT-15 colon | HL-60(TB) leukemia | HOP-62 NSCLC | HOP-92 NSCLC | HT29 colon | IGROV1 ovarian | K-562 leukemia | KM12 colon | KM20L2 colon | LXFL 529 NSCLC | M14 melanoma | M19-MEL melanoma | MALME-3M melanoma | MOLT-4 leukemia | NCI-H226 lung | NCI-H23 lung | NCI-H460 lung | NCI-H522 lung | OVCAR-3 ovarian | OVCAR-4 ovarian | OVCAR-5 ovarian | OVCAR-8 ovarian | SF-268 CNS | SF-295 CNS | SF-539 CNS | SK-MEL-2 melanoma | SK-MEL-28 melanoma | SNB-19 CNS | SR leukemia | SW-620 colon | TK-10 renal | U251 CNS | UACC-257 melanoma | UACC-62 melanoma | UO-31 renal | XF 498 CNS
99.6 µM: SNB-75 CNS

N#CC(C(=O)/C(=N/N)C(C#N)c1ccccc1)c1ccccc1 (centres undefined)
> 100 µM: 786-0 renal | A549 NSCLC | ACHN renal | CAKI-1 renal | CCRF-CEM leukemia | DLD-1 colon | DMS 114 small cell lung | EKVX NSCLC | HCC-2998 colon | HCT-116 colon | HCT-15 colon | HL-60(TB) leukemia | HOP-18 NSCLC | HOP-62 NSCLC | HOP-92 NSCLC | HT29 colon | IGROV1 ovarian | K-562 leukemia | KM12 colon | LOX IMVI melanoma | LXFL 529 NSCLC | M14 melanoma | M19-MEL melanoma | MALME-3M melanoma | MOLT-4 leukemia | NCI-H226 lung | NCI-H23 lung | NCI-H460 lung | NCI-H522 lung | OVCAR-3 ovarian | OVCAR-4 ovarian | OVCAR-5 ovarian | OVCAR-8 ovarian | RPMI-8226 leukemia | RXF 393 renal | RXF-631 renal | SF-268 CNS | SF-295 CNS | SF-539 CNS | SK-MEL-2 melanoma | SK-MEL-28 melanoma | SK-MEL-5 melanoma | SK-OV-3 ovarian | SN12C renal | SNB-19 CNS | SNB-78 CNS | SW-620 colon | TK-10 renal | U251 CNS | UACC-257 melanoma | UACC-62 melanoma | UO-31 renal | XF 498 CNS
